For 1 molecule, Kd results are on record in ChEMBL document CHEMBL5329203, “Target discovery of bioactive natural products with native-compound-coupled CNBr-activated Sepharose 4B beads (NCCB): Applications, mechanisms and outlooks” (Bioorg Med Chem, 2023).

Test [1] deals with T1, Latent membrane protein 1 (Human herpesvirus 4 (strain B95-8), UniProt P03230).
T1 sequence (P03230 whole entry): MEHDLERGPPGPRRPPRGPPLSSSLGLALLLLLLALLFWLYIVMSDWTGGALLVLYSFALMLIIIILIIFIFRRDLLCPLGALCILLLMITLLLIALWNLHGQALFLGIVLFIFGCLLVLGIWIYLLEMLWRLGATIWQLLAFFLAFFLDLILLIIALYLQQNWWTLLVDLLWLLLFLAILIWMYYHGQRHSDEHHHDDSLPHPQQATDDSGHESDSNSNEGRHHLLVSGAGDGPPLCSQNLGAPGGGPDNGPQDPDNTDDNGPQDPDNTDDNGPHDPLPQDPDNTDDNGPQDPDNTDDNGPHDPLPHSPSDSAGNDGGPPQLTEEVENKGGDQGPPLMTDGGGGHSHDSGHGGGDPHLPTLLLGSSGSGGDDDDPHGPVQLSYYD
The test is described as follows: Binding affinity to Epstein Barr virus LMP1 assessed as dissociation constant. Details: species or system human gammaherpesvirus 4.

In test [2] the target is Small ribosomal subunit protein uS2 (Homo sapiens, UniProt P08865). The test is described as follows: Binding affinity to His-tagged Laminin receptor in human A549 cells assessed as dissociation constant by surface plasmon resonance assay. In general terms: Surface plasmon resonance follows binding to a sensor surface in real time, without labels.
Test [3] concerns the target Tyrosine-protein kinase Fyn (Homo sapiens, UniProt P06241). The test is described as follows: Binding affinity to Fyn (unknown origin) assessed as dissociation constant.

Sequence of Tyrosine-protein kinase Fyn (P06241 whole entry): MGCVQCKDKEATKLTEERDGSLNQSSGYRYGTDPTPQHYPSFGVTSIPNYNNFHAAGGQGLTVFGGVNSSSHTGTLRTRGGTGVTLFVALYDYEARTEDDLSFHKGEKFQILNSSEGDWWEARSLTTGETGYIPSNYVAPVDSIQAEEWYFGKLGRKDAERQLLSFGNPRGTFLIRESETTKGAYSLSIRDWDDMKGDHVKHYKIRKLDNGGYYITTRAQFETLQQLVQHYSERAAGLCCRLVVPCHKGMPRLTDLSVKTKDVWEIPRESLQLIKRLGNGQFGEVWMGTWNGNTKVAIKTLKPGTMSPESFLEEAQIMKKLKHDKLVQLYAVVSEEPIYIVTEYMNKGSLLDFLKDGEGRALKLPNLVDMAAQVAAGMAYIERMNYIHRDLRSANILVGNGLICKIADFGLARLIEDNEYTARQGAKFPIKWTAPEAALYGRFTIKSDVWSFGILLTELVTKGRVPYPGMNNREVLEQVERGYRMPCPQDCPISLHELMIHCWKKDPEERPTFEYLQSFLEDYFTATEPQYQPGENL

By Kd is commonly meant a measure of binding affinity in units of concentration. In the case of `O=C(O[C@@H]1Cc2c(O)cc(O)cc2O[C@@H]1c1cc(O)c(O)c(O)c1)c1cc(O)c(O)c(O)c1` [EPIGALOCATECHIN GALLATE], the results for the Kd in test [1], in test [2] and in test [3] were 0.36 µM, 0.0399 µM and 0.367 µM, respectively.
